Measurements as given in the supplement of paper PMC10307832.

Assays:
Assay in all cases: relative viability (nuclei count vs DMSO), 5 days (fraction); higher = more cells survive
CX-5461 + Alpelisib = compound: Cc1cnc(CNC(=O)c2c(=O)c3ccc(N4CCCN(C)CC4)nc3n3c2sc2ccccc23)cn1 [CX-5461] + Cc1nc(NC(=O)N2CCC[C@H]2C(N)=O)sc1-c1ccnc(C(C)(C)C(F)(F)F)c1 [Alpelisib] (partner 2 µM)
Summary of the method: (§1)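 Medians of duplicate plates are given as relative viability. That measure is the nuclei count in treated wells divided by the count in vehicle wells. Counts were taken on 4× images of lung cancer cell lines in 1536-well plates, 5 days after pin-tool dosing the day after seeding with one drug alone or a fixed anchor-drug dose plus five library-drug doses (not always all listed) in √10 steps.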

CX-5461 + Phenformin = compound: Cc1cnc(CNC(=O)c2c(=O)c3ccc(N4CCCN(C)CC4)nc3n3c2sc2ccccc23)cn1 [CX-5461] + N=C(N)NC(=N)NCCc1ccccc1 [Phenformin] (partner 250 µM)
Summary of the method: as §1

CX-5461 + Trametinib = compound: Cc1cnc(CNC(=O)c2c(=O)c3ccc(N4CCCN(C)CC4)nc3n3c2sc2ccccc23)cn1 [CX-5461] + CC(=O)Nc1cccc(-n2c(=O)n(C3CC3)c(=O)c3c(Nc4ccc(I)cc4F)n(C)c(=O)c(C)c32)c1 [Trametinib] (partner 0.02 µM)
Summary of the method: as §1

IMD-0354 + Vorinostat = compound: O=C(Nc1cc(C(F)(F)F)cc(C(F)(F)F)c1)c1cc(Cl)ccc1O [IMD-0354] + O=C(CCCCCCC(=O)Nc1ccccc1)NO [Vorinostat] (partner 1 µM)
Summary of the method: as §1

| Cell Line | relative viability (CX-5461 + Alpelisib; first compound 0.01 µM) | relative viability (CX-5461 + Alpelisib; first compound 0.03162 µM) | relative viability (CX-5461 + Alpelisib; first compound 0.1 µM) | relative viability (CX-5461 + Alpelisib; first compound 0.3162 µM) | relative viability (CX-5461 + Alpelisib; first compound 1 µM) | relative viability (CX-5461 + Phenformin; first compound 0.01 µM) | relative viability (CX-5461 + Phenformin; first compound 0.03162 µM) | relative viability (CX-5461 + Phenformin; first compound 0.1 µM) | relative viability (CX-5461 + Phenformin; first compound 0.3162 µM) | relative viability (CX-5461 + Phenformin; first compound 1 µM) | relative viability (CX-5461 + Trametinib; first compound 0.01 µM) | relative viability (CX-5461 + Trametinib; first compound 0.03162 µM) | relative viability (CX-5461 + Trametinib; first compound 0.1 µM) | relative viability (CX-5461 + Trametinib; first compound 0.3162 µM) | relative viability (CX-5461 + Trametinib; first compound 1 µM) | relative viability (IMD-0354 + Vorinostat; first compound 0.04 µM) | relative viability (IMD-0354 + Vorinostat; first compound 0.1265 µM) | relative viability (IMD-0354 + Vorinostat; first compound 0.4 µM) | relative viability (IMD-0354 + Vorinostat; first compound 1.265 µM) | relative viability (IMD-0354 + Vorinostat; first compound 4 µM) |
| --- | --- | --- | --- | --- | --- | --- | --- | --- | --- | --- | --- | --- | --- | --- | --- | --- | --- | --- | --- | --- |
| NCI-H23 | 0.616 | 0.865 | 0.717 | 0.689 | 0.586 | 0.769 | 0.875 | 0.834 | 0.803 | 0.406 | 0.421 | 0.372 | 0.407 | 0.442 | 0.285 | 0.664 | 0.745 | 0.289 | 0.172 | 0.192 |
| NCI-H322M | 0.813 | 0.938 | 0.846 | – | 0.807 | 0.821 | 0.945 | 0.818 | 0.473 | 0.521 | 0.441 | 0.542 | 0.55 | 0.407 | 0.508 | 0.901 | 0.891 | 0.48 | 0.42 | 0.537 |
| NCI-H358 | 0.997 | 0.883 | 0.413 | 0.593 | 0.27 | 0.349 | 0.347 | 0.316 | 0.236 | 0.148 | 0.125 | 0.108 | 0.0974 | 0.102 | 0.0846 | 0.768 | 0.753 | 0.323 | 0.135 | 0.175 |
| NCI-H441 | 0.76 | 0.876 | 0.694 | 0.727 | 0.438 | 0.758 | 1.05 | 0.779 | 0.86 | 0.305 | 0.451 | 0.552 | 0.441 | 0.429 | 0.24 | 0.971 | 0.82 | 0.416 | 0.246 | 0.236 |
| NCI-H460 | 0.484 | 0.489 | 0.0913 | 0.402 | 0.0154 | 0.545 | 0.483 | – | 0.483 | 0.0194 | 0.21 | 0.142 | 0.0583 | 0.0956 | 0.0222 | 0.552 | 1.09 | 0.445 | 0.0405 | 0.0422 |
| NCI-H520 | 0.841 | 0.945 | 0.856 | 0.712 | 0.619 | 0.577 | 0.503 | 0.717 | 0.303 | 0.36 | 0.754 | 0.642 | 0.734 | 0.327 | 0.352 | 0.815 | 0.709 | 0.51 | 0.192 | 0.248 |
| NCI-H596 | 0.509 | 0.494 | 0.52 | 0.524 | 0.441 | 0.754 | 0.869 | 0.879 | 0.723 | 0.637 | 0.763 | 0.819 | 0.73 | 0.836 | 0.756 | 0.631 | 0.694 | 0.413 | 0.671 | 0.461 |
| NCI-H647 | 1.29 | 1.22 | 1.06 | 1.27 | 0.211 | 0.518 | 0.575 | 0.401 | 0.364 | 0.24 | 0.589 | 0.331 | 0.494 | 0.451 | 0.218 | 0.76 | 0.603 | 0.3 | 0.128 | 0.0744 |
| NCI-H650 | 1.1 | 1.16 | 1.18 | 1.16 | 0.977 | 0.486 | 0.441 | 0.429 | 0.487 | 0.386 | 1.06 | 0.938 | 0.991 | 1.05 | 0.911 | 0.385 | 0.445 | 0.349 | 0.366 | 0.133 |
| NCI-H661 | 0.805 | 0.674 | 0.876 | – | 0.588 | 0.285 | 0.286 | 0.316 | 0.259 | 0.23 | 0.647 | 0.621 | 0.544 | 0.432 | 0.376 | 0.835 | 0.714 | 0.455 | 0.248 | 0.2 |
| NCI-H727 | 0.606 | 0.597 | 0.547 | 0.611 | 0.592 | 0.602 | 0.601 | 0.974 | 0.464 | 0.617 | 0.375 | 0.389 | 0.4 | 0.356 | 0.379 | 1.04 | 1.19 | 0.856 | 0.808 | 0.787 |
| NCI-H838 | 1 | 1.05 | 1.06 | 0.709 | 0.896 | 0.748 | 0.652 | 0.629 | – | 0.431 | 0.555 | 0.555 | 0.539 | 0.328 | 0.482 | 0.719 | 0.766 | 0.363 | 0.413 | 0.324 |
| NCI-H1355 | 0.867 | 0.82 | 0.928 | 0.758 | 0.878 | 0.501 | 0.458 | 0.454 | 0.299 | 0.244 | 0.456 | 0.496 | 0.462 | 0.414 | 0.435 | 0.75 | 0.651 | 0.45 | 0.433 | 0.231 |
| NCI-H1395 | 1.31 | 0.935 | 0.897 | 0.704 | 0.561 | 0.473 | 0.426 | 0.437 | 0.341 | 0.396 | 1.09 | 0.821 | 1.07 | 0.741 | 0.71 | 0.873 | 0.691 | 0.616 | 0.375 | 0.408 |
| NCI-H1437 | 0.979 | 0.941 | – | 0.913 | 0.801 | 0.353 | 0.315 | – | 0.288 | 0.273 | 0.542 | 0.568 | 0.469 | 0.537 | 0.391 | 0.842 | 0.81 | 0.432 | 0.251 | 0.263 |
| NCI-H1651 | – | 0.79 | – | 0.665 | 0.115 | 0.322 | 0.26 | – | 0.251 | 0.132 | 0.824 | 0.791 | 0.87 | 0.79 | 0.778 | 0.583 | 0.602 | 0.504 | 0.299 | 0.168 |
